Assay results reported in patent US9650399B2, “Salicylic acid derivatives, pharmaceutically acceptable salt thereof, composition thereof and method of use thereof” (The Governing Council of the University of Toronto, priority 2012, dated 2017).
Where two headings read alike, the source gives them in different places.

Columns and labels:
[1] = target: STAT3 SH2 domain (Homo sapiens, UniProt P40763); experiment: fluorescence polarization (FP) assay, STAT3; settings: 5-FAM-GpYLPQTV-NH2 probe
[2] = test system: BTSC73M; experiment: alamarBlue cell viability, BTSC 73M; type: cell-based, human; settings: Table 4 library screen, alamarBlue; for IC50: Homo sapiens, read-out: 73M IC50
Method: (§1) First, the library was screened for biological activity against a set of three representative GBM BTSCs derived from GBM patients, including the very aggressive GBM BTSC lines, BTSC73M, BTSC30M, BTSC68EF. Dissociated BTSC spheres were seeded at 1500 cells/96-well and treated with drug compound or vehicle (DMSO) one day after plating. Cell viability following drug treatment was assessed after 72 hrs using the ALAMARBLUE™ assay (Invitrogen) according to the manufacturer's instructions. All culture experiments were performed in triplicate with a minimum of three wells per condition.
(§2) BTSC spheres were dissociated to single cells with the enzyme Accumax (Innovative Technologies), seeded at 1500 cells/96-well and treated with drug or vehicle (DMSO) one day after plating. […] BTSC spheres were dissociated to single cells as above and plated in 96 well plates in triplicate at 3000 cells/96-well. […] Cell viability following drug treatment was assessed three days later using the ALAMARBLUE™ assay (Invitrogen) according to the manufacturer's instructions. All culture experiments were performed in triplicate with a minimum of three wells per condition.

[3] = test system: BTSC68EF; experiment: alamarBlue cell viability, BTSC 68EF; type: cell-based, human; settings: Table 4 library screen, alamarBlue; for IC50: Homo sapiens, read-out: 68EF IC50
Method: as §1, §2

[4] = test system: patient-derived pancreatic cancer line (Panc10.05); experiment: MTS cell survival, pancreatic cancer line; type: cell-based; settings: Homo sapiens, Panc1005, Panc10.05, 72 h, read-out: ED50 (IC50)
Method: Low passage patient-derived pancreatic cancer line (Panc10.05) was plated in 96-well plates (3×10^3 per well) and allowed to attach overnight. STAT3 inhibitors 31, 41, 42 and 38 were added at indicated concentrations. Cell survival was measured 72 h after drug addition with the MTS assay.

[5] = test system: BTSC30M; experiment: alamarBlue cell viability, BTSC 30M; type: cell-based, human; settings: for IC50: Homo sapiens
Method: as §1, §2

[6] = test system: BTSCs; experiment: alamarBlue cytotoxicity across BTSC lines; type: cell-based, human; settings: Homo sapiens
Method: as §1, §2

[7] = test system: pSTAT3 (Y705); experiment: Western blot of phosphorylated STAT3 in BTSCs; type: cell-based, human; settings: Western blot
Text: Blots were stained with antibodies: phospho-Y705, phospho-S727, Bcl-xL, cyclin D1, PARP and Actin. Bands were visualized with the ECL PLUS™ Western Blotting Detection System and […]™ (Amersham). […] BTSC spheres were lysed in modified RIPA buffer supplemented with Complete Mini protease (Roche) and Halt phosphatase (Thermo Scientific) inhibitor cocktails. […] Blots were stained with the following antibodies: phospho-STAT3 Y705 (1:1000, Cell Signalling Technology), phospho-STAT3 S727 (1:1000, Cell Signalling Technology), STAT3 (1:1000, Santa Cruz Biotechnology), Bcl-xL (1:1000, Cell Signalling Technology), cyclin D1 (1:1000, Cell Signalling Technology) PARP (1:1000, Cell Signalling Technology) and Actin (1:2500, Santa Cruz Biotechnology). HRP conjugated secondary antibodies, goat anti-rabbit (Cell Signalling Technology) were used at 1:2000 and donkey anti-mouse, donkey anti-goat, and goat anti-rabbit, (Calbiochem) were used at 1:6000. Bands were visualized with the ECL Plus Western Blotting Detection System and Hyperfilm (Amersham).

[8] = test system: normal human fetal astrocytes (HF 2003, HF 2006, HF 2009, HF 2013); experiment: toxicity in normal human fetal astrocytes; type: cell-based; settings: concentrations of up to 5 μM
Method: Given the nM cytoxicity, these compounds were assayed for biological effects in healthy cells.
GBM BTSCs were cultured from a series of tumor specimens obtained following informed consent from adult GBM patients during their operative procedure as previously described (Kelly et al, Stem Cells 2009) and approved by the University of Calgary Ethics Review Board. Briefly, BTSC cultures were initiated in serum-free defined culture medium (SFM) and gave rise to nonadherent spheres after 7 to 21 days in culture. Primary tumor spheres were expanded for several passages and then cryopreserved in 10% DMSO (Sigma Aldrich) in serum-free defined medium until use in experiments. Human fetal neural stem cells were also cultured as previously described and induced to differentiate into astrocytes by addition of 10% fetal bovine serum and removal of EGF, FGF-2 and heparan sulfate.

[9] = test system: 147EF; experiment: alamarBlue cell viability, BTSC 147EF; type: cell-based, human; settings: Homo sapiens, Table 4 library screen
Text: BTSC spheres were dissociated to single cells with the enzyme Accumax (Innovative Technologies), seeded at 1500 cells/96-well and treated with drug or vehicle (DMSO) one day after plating. Cytotoxicity studies were repeated independently at Sickkids Hospital using BTSC lines 25M, 67EF, 73EF, 84EF and 127EF. BTSC spheres were dissociated to single cells as above and plated in 96 well plates in triplicate at 3000 cells/96-well. In both sets of experiments drugs were used as serial dilutions within the range of 5 μM to 100 nM in the first set and 25 μM to 10 nM. Cell viability following drug treatment was assessed three days later using the ALAMARBLUE™ assay (Invitrogen) according to the manufacturer's instructions. All culture experiments were performed in triplicate with a minimum of three wells per condition. Table 4 below illustrates a screen of the library against a number of BTSCs using ALAMARBLUE™ assay.

[10] = test system: Breast cancer cells (MDA-MB-468); experiment: IC50 in breast cancer cells; type: cell-based; settings: Homo sapiens, Table 6
[11] = target: T1, ERK1 (Homo sapiens, UniProt P27361); experiment: HotSpot radiometric kinase assay, ERK1; type: biochemical; settings: 5 uM compound, 10 μM ATP, duplicate (Data 1, Data 2)
T1 construct: purchased Reaction Biology Corporation

[12] = test system: Prostate (DU145); experiment: IC50 in prostate cancer cells; type: cell-based; settings: Homo sapiens, DU-145; Table 6
[13] = target: T2, AKT1 (Homo sapiens, UniProt P31749); experiment: HotSpot radiometric kinase assay, AKT1; type: biochemical; settings: 5 uM compound, 10 μM ATP, duplicate (Data 1, Data 2)
T2 construct: purchased Reaction Biology Corporation

[14] = target: T3, c-Src (Homo sapiens, UniProt P12931); experiment: HotSpot radiometric kinase assay, c-Src; type: biochemical; settings: 5 uM compound, 10 μM ATP, duplicate (Data 1, Data 2)
T3 construct: purchased Reaction Biology Corporation
Method: (§3) Briefly, this assay employs a radiometric detection system to measure kinase phosphoryl transfer activity.
(§4) Test compound was evaluated at a single dose of 5 μM in duplicate mode. […] Reactions were carried out at 10 μM ATP.
(§5) Preliminary screen against AKT, c-Src, ERK1, JaK1 and JaK2 was performed at Reaction Biology Corporation (www.reactionbiology.com, Malvern, Pa.) using the “HotSpot” assay platform. Specific kinase/substrate pairs along with their required cofactors were prepared in reaction buffer; 20 mM Hepes pH 7.5, 10 mM MgCl2, 1 mM EGTA, 0.02% Brij35, 0.02 mg/ml BSA, 0.1 mM Na3VO4, 2 mM DTT, 1% DMSO. The screen was completed in duplicate at a single concentration of 5 μM. The reaction well with the subject compound was treated with a mixture of ATP (Sigma, St. Louis Mo.) and ^33P ATP (Perkin Elmer, Waltham Mass.) to a final concentration of 10 μM. […] Reaction wells were kept at room temperature for 120 minutes, followed by spotting each of the reactions onto P81 ion exchange filter paper (Whatman Inc., Piscataway, N.J.). […] Background was subtracted using control reactions and the kinase activity data was expressed as the percent remaining kinase activity in test samples compared to vehicle (dimethyl sulfoxide) reactions. All IC50 values (table 3) and curve fitting were produced using Prism (GraphPad Software) (FIG. 5).

[15] = target: T4, JAK1 (Homo sapiens, UniProt P23458); experiment: HotSpot radiometric kinase assay, JAK1; type: biochemical; settings: 5 uM compound, 10 μM ATP, duplicate (Data 1, Data 2)
T4 construct: purchased Reaction Biology Corporation
Method: as §3, §4, §5

[16] = target: T5, JAK2 (Homo sapiens, UniProt O60674); experiment: HotSpot radiometric kinase assay, JAK2; type: biochemical; settings: 5 uM compound, 10 μM ATP, duplicate (Data 1, Data 2)
T5 construct: purchased Reaction Biology Corporation
Method: as §3, §4, §5

[17] = test system: leukemia cancer cells (AML-2); experiment: IC50 in leukemia cancer cells; type: cell-based; settings: Table 6
[18] = read-out: 30M IC50 (μM), Table 4 library screen, alamarBlue
[19] = Table 4 library screen, alamarBlue

Sequence of STAT3 SH2 domain (P40763 whole entry, the tested form may be a part): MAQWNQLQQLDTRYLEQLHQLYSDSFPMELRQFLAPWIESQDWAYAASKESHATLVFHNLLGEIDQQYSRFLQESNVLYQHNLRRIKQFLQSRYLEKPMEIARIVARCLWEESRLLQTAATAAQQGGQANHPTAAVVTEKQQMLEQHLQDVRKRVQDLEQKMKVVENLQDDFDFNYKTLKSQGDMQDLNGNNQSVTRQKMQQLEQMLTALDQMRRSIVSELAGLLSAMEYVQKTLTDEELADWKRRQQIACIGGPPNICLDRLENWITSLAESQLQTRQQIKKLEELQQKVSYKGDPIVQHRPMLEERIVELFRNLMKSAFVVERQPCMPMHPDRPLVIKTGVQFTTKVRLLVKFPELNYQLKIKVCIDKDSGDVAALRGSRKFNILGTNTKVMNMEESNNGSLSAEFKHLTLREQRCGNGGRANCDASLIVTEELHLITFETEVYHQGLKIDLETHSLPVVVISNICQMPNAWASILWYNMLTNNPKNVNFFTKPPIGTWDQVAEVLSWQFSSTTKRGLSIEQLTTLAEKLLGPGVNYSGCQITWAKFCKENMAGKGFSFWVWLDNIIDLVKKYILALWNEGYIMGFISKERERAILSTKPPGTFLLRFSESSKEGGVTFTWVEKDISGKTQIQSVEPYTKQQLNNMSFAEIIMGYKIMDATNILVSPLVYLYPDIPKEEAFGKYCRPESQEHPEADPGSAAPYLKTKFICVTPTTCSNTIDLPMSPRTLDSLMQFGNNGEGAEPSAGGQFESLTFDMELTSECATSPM
T2 sequence (P31749 whole entry): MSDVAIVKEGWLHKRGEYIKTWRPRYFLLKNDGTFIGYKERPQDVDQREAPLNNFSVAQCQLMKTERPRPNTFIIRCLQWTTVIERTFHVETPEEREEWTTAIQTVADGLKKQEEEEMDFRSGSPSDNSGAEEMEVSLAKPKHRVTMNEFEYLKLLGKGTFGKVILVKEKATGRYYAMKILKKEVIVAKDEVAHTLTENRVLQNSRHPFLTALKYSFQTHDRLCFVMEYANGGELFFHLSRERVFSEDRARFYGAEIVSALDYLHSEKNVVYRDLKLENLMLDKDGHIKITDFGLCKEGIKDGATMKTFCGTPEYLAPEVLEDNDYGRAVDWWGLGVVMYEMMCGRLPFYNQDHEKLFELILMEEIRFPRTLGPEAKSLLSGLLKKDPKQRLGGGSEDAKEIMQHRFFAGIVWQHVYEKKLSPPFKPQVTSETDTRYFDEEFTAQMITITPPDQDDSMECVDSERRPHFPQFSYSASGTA
T5 sequence (O60674 whole entry): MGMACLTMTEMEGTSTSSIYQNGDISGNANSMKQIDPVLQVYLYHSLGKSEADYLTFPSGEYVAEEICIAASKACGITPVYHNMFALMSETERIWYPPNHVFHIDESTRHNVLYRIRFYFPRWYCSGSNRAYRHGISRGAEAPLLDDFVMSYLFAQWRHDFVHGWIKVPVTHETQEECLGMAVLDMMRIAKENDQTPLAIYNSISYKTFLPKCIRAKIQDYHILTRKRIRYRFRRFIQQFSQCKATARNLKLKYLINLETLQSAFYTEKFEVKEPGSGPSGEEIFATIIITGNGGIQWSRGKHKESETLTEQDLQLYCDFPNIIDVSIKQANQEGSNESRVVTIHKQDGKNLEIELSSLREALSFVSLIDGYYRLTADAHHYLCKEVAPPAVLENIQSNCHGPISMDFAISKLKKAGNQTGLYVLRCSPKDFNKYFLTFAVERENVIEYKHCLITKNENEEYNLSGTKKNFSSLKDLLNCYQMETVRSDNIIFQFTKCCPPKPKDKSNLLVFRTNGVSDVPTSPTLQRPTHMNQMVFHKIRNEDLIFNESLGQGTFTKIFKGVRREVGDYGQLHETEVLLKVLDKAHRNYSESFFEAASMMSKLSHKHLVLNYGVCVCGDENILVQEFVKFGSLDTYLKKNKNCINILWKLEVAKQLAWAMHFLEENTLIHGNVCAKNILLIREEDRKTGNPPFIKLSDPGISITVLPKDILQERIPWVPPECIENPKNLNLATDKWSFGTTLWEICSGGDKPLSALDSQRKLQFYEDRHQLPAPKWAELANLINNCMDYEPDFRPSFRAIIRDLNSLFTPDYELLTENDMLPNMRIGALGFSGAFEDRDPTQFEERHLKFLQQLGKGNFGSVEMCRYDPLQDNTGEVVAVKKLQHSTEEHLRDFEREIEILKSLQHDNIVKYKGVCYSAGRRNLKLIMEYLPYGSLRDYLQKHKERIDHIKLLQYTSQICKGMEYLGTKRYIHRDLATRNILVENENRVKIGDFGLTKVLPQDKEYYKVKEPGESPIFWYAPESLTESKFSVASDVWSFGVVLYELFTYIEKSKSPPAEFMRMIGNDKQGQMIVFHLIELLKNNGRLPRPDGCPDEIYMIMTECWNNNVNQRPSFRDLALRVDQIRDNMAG
T3 sequence (P12931 whole entry): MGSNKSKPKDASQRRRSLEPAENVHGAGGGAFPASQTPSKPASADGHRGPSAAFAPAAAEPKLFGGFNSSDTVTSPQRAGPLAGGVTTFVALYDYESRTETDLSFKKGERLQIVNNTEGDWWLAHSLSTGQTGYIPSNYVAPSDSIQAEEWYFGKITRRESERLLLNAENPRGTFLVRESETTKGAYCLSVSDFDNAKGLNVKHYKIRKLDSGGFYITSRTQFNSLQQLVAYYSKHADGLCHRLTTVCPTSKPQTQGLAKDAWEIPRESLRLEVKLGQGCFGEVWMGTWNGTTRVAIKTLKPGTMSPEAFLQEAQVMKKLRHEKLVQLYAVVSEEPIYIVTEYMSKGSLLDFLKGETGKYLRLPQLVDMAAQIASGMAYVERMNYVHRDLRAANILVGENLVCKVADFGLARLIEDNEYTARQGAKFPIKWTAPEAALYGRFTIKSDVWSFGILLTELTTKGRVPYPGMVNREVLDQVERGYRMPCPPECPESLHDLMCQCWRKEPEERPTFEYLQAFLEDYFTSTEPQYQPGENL
T1 sequence (P27361 whole entry): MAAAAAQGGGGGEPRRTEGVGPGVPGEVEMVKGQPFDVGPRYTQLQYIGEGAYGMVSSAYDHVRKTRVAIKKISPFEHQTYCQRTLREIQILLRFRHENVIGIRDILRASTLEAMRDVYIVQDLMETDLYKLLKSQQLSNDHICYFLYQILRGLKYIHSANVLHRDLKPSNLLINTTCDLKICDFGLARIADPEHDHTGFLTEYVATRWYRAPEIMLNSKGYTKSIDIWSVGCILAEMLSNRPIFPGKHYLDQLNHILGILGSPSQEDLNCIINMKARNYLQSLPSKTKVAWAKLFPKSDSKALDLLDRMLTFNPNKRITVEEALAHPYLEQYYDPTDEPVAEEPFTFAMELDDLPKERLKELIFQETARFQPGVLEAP
T4 sequence (P23458 whole entry): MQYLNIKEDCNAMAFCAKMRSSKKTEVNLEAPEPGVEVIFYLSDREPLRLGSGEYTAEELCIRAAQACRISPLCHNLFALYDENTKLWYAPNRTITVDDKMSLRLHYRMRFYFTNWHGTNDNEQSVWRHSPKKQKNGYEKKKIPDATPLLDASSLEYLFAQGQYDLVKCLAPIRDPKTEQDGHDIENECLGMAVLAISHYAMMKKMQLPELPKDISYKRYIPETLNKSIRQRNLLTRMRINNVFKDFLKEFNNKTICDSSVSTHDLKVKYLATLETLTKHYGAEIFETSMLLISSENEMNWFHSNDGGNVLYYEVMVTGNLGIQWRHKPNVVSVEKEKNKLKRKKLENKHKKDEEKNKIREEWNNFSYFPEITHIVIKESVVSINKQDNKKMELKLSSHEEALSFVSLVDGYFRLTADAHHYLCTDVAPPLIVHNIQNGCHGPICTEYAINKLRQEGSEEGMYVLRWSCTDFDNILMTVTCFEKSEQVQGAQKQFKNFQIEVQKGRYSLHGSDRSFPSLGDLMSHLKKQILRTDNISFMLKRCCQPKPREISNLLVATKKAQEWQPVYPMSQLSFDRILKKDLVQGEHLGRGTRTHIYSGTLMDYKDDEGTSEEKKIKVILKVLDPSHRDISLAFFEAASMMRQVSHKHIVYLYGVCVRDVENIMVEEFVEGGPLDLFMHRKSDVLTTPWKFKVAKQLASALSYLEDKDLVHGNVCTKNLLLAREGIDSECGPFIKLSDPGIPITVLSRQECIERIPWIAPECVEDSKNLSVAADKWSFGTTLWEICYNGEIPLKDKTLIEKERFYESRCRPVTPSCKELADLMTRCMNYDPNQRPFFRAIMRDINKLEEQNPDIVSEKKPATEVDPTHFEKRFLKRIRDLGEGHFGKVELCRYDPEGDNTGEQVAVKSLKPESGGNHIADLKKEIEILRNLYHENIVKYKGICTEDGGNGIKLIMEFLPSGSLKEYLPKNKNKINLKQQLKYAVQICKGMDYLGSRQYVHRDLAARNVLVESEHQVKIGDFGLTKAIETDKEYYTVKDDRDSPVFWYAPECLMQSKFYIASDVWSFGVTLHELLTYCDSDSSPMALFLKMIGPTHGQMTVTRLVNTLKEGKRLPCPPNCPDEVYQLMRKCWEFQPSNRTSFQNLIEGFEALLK

## CN(CC(=O)N(Cc1ccc(C2CCCCC2)cc1)c1ccccc1)S(=O)(=O)c1c(F)c(F)c(F)c(F)c1F [Compound 36, N-(4-cyclohexylbenzyl)-2-(2,3,4,5,6-pentafluoro-N-methylphenylsulfonamido)-N-phenylacetamide]
[1]
  disruption of STAT3:phosphopeptide interaction / binding activity (in words): no disruption of the STAT3:phosphopeptide interaction
[2]
  73M IC50 (μM): no effect

## CN(CC(=O)N(Cc1ccc(C2CCCCC2)cc1)c1ccc(O)c(C(=O)O)c1)S(=O)(=O)c1c(F)c(F)c(F)c(F)c1F [Compound 38, 5-(N-(4-cyclohexylbenzyl)-2-(2,3,4,5,6-pentafluoro-N-methylphenylsulfonamido)acetamido)-2-hydroxybenzoic acid]
[3]
  IC50: 3050 nM
[4]
  IC50: 4800 nM
[5]; [18]
  IC50: 2.07 µM
[2]
  IC50: 2550 nM

## CC(=O)Oc1cc(N(Cc2ccc(C3CCCCC3)cc2)C(=O)CN(C)S(=O)(=O)c2c(F)c(F)c(F)c(F)c2F)ccc1C(=O)O [Compound 22, 2-acetoxy-4-(N-(4-cyclohexylbenzyl)-2-(2,3,4,5,6-pentafluoro-N-methylphenylsulfonamido)acetamido)benzoic acid]
[3]
  IC50: 891 nM
[6]; collective range over 8 BTSC lines, read-out: EC50s across all 8 BTSCs evaluated
  EC50: 66 to 1140 nM
[6]; collective range, units given in the value, read-out: IC50 values of the top four ranked compounds against BTSCs
  IC50: 100 to 3800 nM
[7]; 0, 0.1, 0.5, 1.0 and 5.0 μM
  pSTAT3 inhibition potency: nM inhibition of pSTAT3
[7]; 1 μM, BTSCs
  suppression of pSTAT3 (Y705): most suppression of pSTAT3 (Y705)
[8]
  toxicity in normal human cells: minimal toxicity
[5]; [18]
  IC50: 0.526 µM
[5]; read-out: IC50 (nM) in BTSC 30M
  IC50: 0.526 ± 0.013 µM
[2]
  IC50: 1450 nM
[9]
  IC50: 776 nM

## CN(CC(=O)N(Cc1ccc(C2CCCCC2)cc1)c1ccc(C(=O)OCOC(=O)C(C)(C)C)cc1)S(=O)(=O)c1c(F)c(F)c(F)c(F)c1F [Compound 27, (pivaloyloxy)methyl 4-(N-(4-cyclohexylbenzyl)-2-(2,3,4,5,6-pentafluoro-N-methylphenylsulfonamido)acetamido)benzoate]
[3]
  68EF IC50 (μM): no effect
[1]
  disruption of STAT3:phosphopeptide interaction / binding activity (in words): most potent inhibitor of STAT3
[5]; [19]
  30M IC50 (μM): no effect

## Cc1ccc(S(=O)(=O)N(C)CC(=O)N(Cc2ccc(C3CCCCC3)cc2)c2ccc(C(=O)O)cc2)cc1 [Compound 42, 4-(N-(4-cyclohexylbenzyl)-2-(N,4-dimethylphenylsulfonamido)acetamido)benzoic acid]
[4]
  IC50: 16700 nM
[5]; [19]
  30M IC50 (μM): no effect
[2]
  73M IC50 (μM): no effect

## CC(=O)Oc1cc(N(Cc2ccc(C3CCCCC3)cc2)C(=O)CN(C)S(=O)(=O)c2ccc(C)cc2)ccc1C(=O)O [SH-05-19, 2-acetoxy-4-(N-(4-cyclohexylbenzyl)-2-(N,4-dimethylphenylsulfonamido)acetamido)benzoic acid]
[10]
  IC50: < 1000 nM
[11]; read-out: % Enzyme activity relative to DMSO (control), ERK1
  remaining activity at 5 µM: 119%
[11]; remaining activity
  % Enzyme activity relative to DMSO (control), ERK1: 126.49%
[12]
  IC50: 9800 nM
[13]; read-out: % Enzyme activity relative to DMSO (control), AKT1
  remaining activity at 5 µM: 90.6%
[13]; remaining activity
  % Enzyme activity relative to DMSO (control), AKT1: 87.91%
[14]; read-out: % Enzyme activity relative to DMSO (control), c-Src
  remaining activity at 5 µM: 41.6%
[14]; remaining activity
  % Enzyme activity relative to DMSO (control), c-Src: 39.16%
[15]; read-out: % Enzyme activity relative to DMSO (control), JAK1
  remaining activity at 5 µM: 98.3%
[15]; remaining activity
  % Enzyme activity relative to DMSO (control), JAK1: 97.79%
[5]; read-out: IC50 BTSC 30M, Table 6, in parallel with other cancer lines
  IC50: 0.505 µM
[16]; read-out: % Enzyme activity relative to DMSO (control), JAK2
  remaining activity at 5 µM: 46.1%
[16]; remaining activity
  % Enzyme activity relative to DMSO (control), JAK2: 47.70%
[17]
  IC50: < 1000 nM

## CN(CC(=O)N(Cc1ccc(C2CCCCC2)cc1)c1ccc(NC(=O)Cc2nnn[nH]2)cc1)S(=O)(=O)c1c(F)c(F)c(F)c(F)c1F [Compound 41, N-(4-(2-(1H-tetrazol-5-yl)acetamido)phenyl)-N-(4-cyclohexylbenzyl)-2-(2,3,4,5,6-pentafluoro-N-methylphenylsulfonamido)acetamide]
[4]
  IC50: 16400 nM
[2]
  IC50: 3500 nM
